Test system: IPF patients
Test: Phase II clinical trial in IPF patients: Treatment Emergent Adverse Events (safety/tolerability), up to 13 weeks
Description: The participants were divided into 2 groups by chance (the “active agent group” and the “placebo group”). […] One 12 mg placebo tablet and one 6 mg placebo tablet (both containing no active ingredient, see Table 1) was administered orally to the patients of the second group twice daily (b.i.d.).
The “active agent group” and the “placebo group” were further distributed to two different groups regarding background medication: the “AF-group” (“antifibrotic background medication group”) and the “Non-AF-group” (“no antifibrotic background medication group”). […] The combination of both nintedanib and pirfenidone as background medication was not allowed in the “AF-group”.
The trial was a randomised, double-blind, placebo-controlled parallel group study.

Structure (SMILES): [O-][S@+]1CCc2nc(N3CCC(c4ncc(Cl)cn4)CC3)nc(NC3(CO)CCC3)c21 [Comp. of form. III]
- AE: Metabolism and nutrition disorders, patients n (Non-AF+AF total, 18 mg b.i.d.): 4
- AE: Musculoskeletal and connective tissue disorders, patients % (Non-AF+AF total, 18 mg b.i.d.): (5.2) %
- AE: Musculoskeletal and connective tissue disorders, patients n (Non-AF+AF total, 18 mg b.i.d.): 5
- AE: Nasopharyngitis, patients % (Non-AF+AF total, 18 mg b.i.d.): (4.1) %
- AE: Nasopharyngitis, patients n (Non-AF+AF total, 18 mg b.i.d.): 4
- AE: Nausea, patients % (Non-AF+AF total, 18 mg b.i.d.): (3.1) %
- AE: Nausea, patients n (Non-AF+AF total, 18 mg b.i.d.): 3
- AE: Nervous system disorders, patients % (Non-AF+AF total, 18 mg b.i.d.): (13.4) %
- AE: Nervous system disorders, patients n (Non-AF+AF total, 18 mg b.i.d.): 13
- AE: Oedema peripheral, patients % (Non-AF+AF total, 18 mg b.i.d.): (2.1) %
- AE: Oedema peripheral, patients n (Non-AF+AF total, 18 mg b.i.d.): 2
- AE: Pyrexia, patients % (Non-AF+AF total, 18 mg b.i.d.): (2.1) %
- AE: Pyrexia, patients n (Non-AF+AF total, 18 mg b.i.d.): 2
- AE: Respiratory, thoracic and mediastinal disorders, patients % (Non-AF+AF total, 18 mg b.i.d.): (14.4) %
- AE: Respiratory, thoracic and mediastinal disorders, patients n (Non-AF+AF total, 18 mg b.i.d.): 14
- AE: Rhinorrhoea, patients % (Non-AF+AF total, 18 mg b.i.d.): (2.1) %
- AE: Rhinorrhoea, patients n (Non-AF+AF total, 18 mg b.i.d.): 2
- AE: Vomiting, patients % (Non-AF+AF total, 18 mg b.i.d.): (3.1) %
- AE: Vomiting, patients n (Non-AF+AF total, 18 mg b.i.d.): 3
- AE: Weight decreased, patients % (Non-AF+AF total, 18 mg b.i.d.): (3.1) %
- AE: Weight decreased, patients n (Non-AF+AF total, 18 mg b.i.d.): 3
- AEs leading to discontinuation of trial drug, patients % (Non-AF+AF total, 18 mg b.i.d.): (13.4) %
- AEs leading to discontinuation of trial drug, patients n (Non-AF+AF total, 18 mg b.i.d.): 13
- Any AE, patients n (Non-AF+AF total, 18 mg b.i.d.): 67
- Diarrhoea leading to discontinuation of trial treatment, patients % (Non-AF+AF total, 18 mg b.i.d.): (3.1) %
- Diarrhoea leading to discontinuation of trial treatment, patients n (Non-AF+AF total, 18 mg b.i.d.): 3
- Dyspepsia leading to discontinuation of trial treatment, patients % (Non-AF+AF total, 18 mg b.i.d.): (1.0) %
- Dyspepsia leading to discontinuation of trial treatment, patients n (Non-AF+AF total, 18 mg b.i.d.): 1
- Gastrointestinal disorders leading to discontinuation of trial treatment, patients % (Non-AF+AF total, 18 mg b.i.d.): (5.2) %
- Gastrointestinal disorders leading to discontinuation of trial treatment, patients n (Non-AF+AF total, 18 mg b.i.d.): 5
- SAE: COPD, patients % (Non-AF+AF total, 18 mg b.i.d.): (1.0) %
- SAE: COPD, patients n (Non-AF+AF total, 18 mg b.i.d.): 1
- SAE: Cardiac disorders, patients % (Non-AF+AF total, 18 mg b.i.d.): (1.0) %
- SAE: Cardiac disorders, patients n (Non-AF+AF total, 18 mg b.i.d.): 1
- SAE: Cardiac failure congestive, patients % (Non-AF+AF total, 18 mg b.i.d.): (1.0) %
- SAE: Cardiac failure congestive, patients n (Non-AF+AF total, 18 mg b.i.d.): 1
- SAE: Condition aggravated, patients % (Non-AF+AF total, 18 mg b.i.d.): (2.1) %
- SAE: Condition aggravated, patients n (Non-AF+AF total, 18 mg b.i.d.): 2
- SAE: Covid-19 pneumonia, patients % (Non-AF+AF total, 18 mg b.i.d.): (1.0) %
- SAE: Covid-19 pneumonia, patients n (Non-AF+AF total, 18 mg b.i.d.): 1
- SAE: Dyspnoea, patients % (Non-AF+AF total, 18 mg b.i.d.): (1.0) %
- SAE: Dyspnoea, patients n (Non-AF+AF total, 18 mg b.i.d.): 1
- SAE: General disorders and administration side conditions, patients % (Non-AF+AF total, 18 mg b.i.d.): (2.1) %
- SAE: General disorders and administration side conditions, patients n (Non-AF+AF total, 18 mg b.i.d.): 2
- SAE: Infections and Infestations, patients % (Non-AF+AF total, 18 mg b.i.d.): (1.0) %
- SAE: Infections and Infestations, patients n (Non-AF+AF total, 18 mg b.i.d.): 1
- SAE: Lung neoplasm, patients % (Non-AF+AF total, 18 mg b.i.d.): (1.0) %
- SAE: Lung neoplasm, patients n (Non-AF+AF total, 18 mg b.i.d.): 1
- SAE: Neoplasms benign, malignant and unspecified, patients % (Non-AF+AF total, 18 mg b.i.d.): (1.0) %
- SAE: Neoplasms benign, malignant and unspecified, patients n (Non-AF+AF total, 18 mg b.i.d.): 1
- SAE: Nervous system disorders, patients % (Non-AF+AF total, 18 mg b.i.d.): (1.0) %
- SAE: Nervous system disorders, patients n (Non-AF+AF total, 18 mg b.i.d.): 1
- SAE: Peripheral nerve paresis, patients % (Non-AF+AF total, 18 mg b.i.d.): (1.0) %
- SAE: Peripheral nerve paresis, patients n (Non-AF+AF total, 18 mg b.i.d.): 1
- SAE: Respiratory, thoracic and mediastinal disorders, patients % (Non-AF+AF total, 18 mg b.i.d.): (1.0) %
- SAE: Respiratory, thoracic and mediastinal disorders, patients n (Non-AF+AF total, 18 mg b.i.d.): 1
- SAE: Vascular disorders, patients % (Non-AF+AF total, 18 mg b.i.d.): (1.0) %
- SAE: Vascular disorders, patients n (Non-AF+AF total, 18 mg b.i.d.): 1
- SAE: Vasculitis, patients % (Non-AF+AF total, 18 mg b.i.d.): (1.0) %
- SAE: Vasculitis, patients n (Non-AF+AF total, 18 mg b.i.d.): 1
- Serious AEs (patients with ≥1 SAE), patients % (Non-AF+AF total, 18 mg b.i.d.): (6.2) %
- Serious AEs (patients with ≥1 SAE), patients n (Non-AF+AF total, 18 mg b.i.d.): 6
- Severe AEs, patients % (Non-AF+AF total, 18 mg b.i.d.): (4.1) %
- Severe AEs, patients n (Non-AF+AF total, 18 mg b.i.d.): 4
- Vomiting leading to discontinuation of trial treatment, patients % (Non-AF+AF total, 18 mg b.i.d.): (1.0) %
- Vomiting leading to discontinuation of trial treatment, patients n (Non-AF+AF total, 18 mg b.i.d.): 1
- Any AE, patients % (Non-AF+AF total, 18 mg b.i.d., listed as Compound of formula III): (69.1) %
- Any AE, patients % (Non-AF+AF total, 18 mg b.i.d., listed as active agent): 67%
- Abdominal Pain, % (Non-AF, N = 48): (2.1) %
- Asthenia, % (Non-AF, N = 48): (6.3) %
- Bronchitis, % (Non-AF, N = 48): (2.1) %
- Constipation, % (Non-AF, N = 48): (2.1) %
- Cough, % (Non-AF, N = 48): (6.3) %
- Decreased appetite, % (Non-AF, N = 48): (2.1) %
- Diarrhoea, % (Non-AF, N = 48): (16.7) %
- Dizziness, % (Non-AF, N = 48): (2.1) %
- Dyspepsia, % (Non-AF, N = 48): (6.3) %
- Dyspnoea, % (Non-AF, N = 48): (6.3) %
- Fatigue, % (Non-AF, N = 48): (4.2) %
- Flatulence, % (Non-AF, N = 48): (6.3) %
- Gastrointestinal disorders, % (Non-AF, N = 48): (27.1) %
- General Disorders and Administration Side conditions, % (Non-AF, N = 48): (18.8) %
- Headache, % (Non-AF, N = 48): (6.3) %
- Infections and infestations, % (Non-AF, N = 48): (14.6) %
- Investigations, % (Non-AF, N = 48): (10.4) %
- Metabolism and nutrition disorders, % (Non-AF, N = 48): (2.1) %
- Musculoskeletal and connective tissue disorders, % (Non-AF, N = 48): (4.2) %
- Nausea, % (Non-AF, N = 48): (4.2) %
- Nervous system disorders, % (Non-AF, N = 48): (8.3) %
- Oedema peripheral, % (Non-AF, N = 48): (2.1) %
- Pyrexia, % (Non-AF, N = 48): (2.1) %
- Respiratory, thoracic and mediastinal disorders, % (Non-AF, N = 48): (16.7) %
- Rhinorrhoea, % (Non-AF, N = 48): (2.1) %
- Vomiting, % (Non-AF, N = 48): (2.1) %
- Weight decreased, % (Non-AF, N = 48): (4.2) %
- AE resulting in death, patients % (Non-AF-group, 18 mg b.i.d.): (2.1) %
- AE resulting in death, patients n (Non-AF-group, 18 mg b.i.d.): 1
- AE: Abdominal pain, patients % (Non-AF-group, 18 mg b.i.d.): (2.1) %
- AE: Abdominal pain, patients n (Non-AF-group, 18 mg b.i.d.): 1
- AE: Asthenia, patients % (Non-AF-group, 18 mg b.i.d.): (6.3) %
- AE: Asthenia, patients n (Non-AF-group, 18 mg b.i.d.): 3
- AE: Bronchitis, patients % (Non-AF-group, 18 mg b.i.d.): (2.1) %
- AE: Bronchitis, patients n (Non-AF-group, 18 mg b.i.d.): 1
- AE: Constipation, patients % (Non-AF-group, 18 mg b.i.d.): (2.1) %
- AE: Constipation, patients n (Non-AF-group, 18 mg b.i.d.): 1
- AE: Cough, patients % (Non-AF-group, 18 mg b.i.d.): (6.3) %
- AE: Cough, patients n (Non-AF-group, 18 mg b.i.d.): 3

From US20230190754A1, “Therapeutic combinations for the treatment of Progressive Fibrosing interstitial lung diseases” (Boehringer Ingelheim International GmbH, priority 2021, published 2023)
